The values below come from patent publication US20240009182A1, “REPURPOSED COMPOUND AS THERAPEUTIC FOR HPV-ASSOCIATED CANCERS” (The Chinese University of Hong Kong, priority 2022, published 2024).

Format in all cases: cell-based, human
For experiment [1], the system named is SCC25 (HPV-negative) cancer cells. Put plainly: Cell proliferation, cell counting kit-8 (CCK8) assay, SCC25. To be noted: DMSO 10.45±0.88 folds. As for the experimental part: FIGS. 3A-3B HBX 19818 inhibited proliferation of CaSki cells, but not SCC25 cells. The growth curves showing the cell proliferation of (FIG. 3A) CaSki (HPV16-positive) and (FIG. 3B) SCC25 (HPV-negative) cancer cells in the presence or absence of HBX 19818. Cell proliferation of CaSki was assessed using cell counting kit 8 (CCK8) assay. Cells were seeded into 96-well plates and incubated with either DMSO (vehicle control) or HBX 19818 at 3 μM or 6 μM for different days as indicated. Optical density (OD) value at 450 nm indicating relative proliferation was measured daily (n=3). Error bars indicate standard error of the mean (SEM).
We assessed the ability of CaSki (HPV16 positive cells) and SCC25, which are HPV-null cells, to proliferate using a cell counting kit-8 (CCK8) assay. This assay measures the ability of viable cells to metabolize soluble tetrazolium salt (WST-8) to orange formazan, in which the latter can be measured at optical density (OD) of […]. A day prior to drug treatment, CaSki and SCC25 were seeded into each well of 96-well plates at a density of 2000 cells/well in 100 μL of DMEM containing 10% FBS. The cells were treated with either DMSO (vehicle control) or HBX 19818 at 3 μM and 6 μM for 24, 72, and 96 hrs. […] The OD value of the medium at 450 nm was measured using LEDETECT 96 microplate reader (Labexim Products).
Background: Formazan colour is commonly taken as a measure of viable cells.

Another experiment deals with ubiquitin in CaSki cells. Put plainly: Endogenous ubiquitin level by western blotting in CaSki cells. Particulars: 3 μM, independent of cycloheximide. As for the experimental part: FIGS. 2A-2C HBX 19818 treatment destabilized the steady-state level of HPV16 E7. FIG. 2A. Immunoblots showing the protein levels of HPV16 E7, endogenous ubiquitin and USP7. CaSki cells were either transfected with expression plasmids pcDNA 3.1 (left panel) or pcDNA:Flag-USP7, treated with 3 μM of HBX 19818. After 24 hr, the cells were treated with 10 μg/ml cycloheximide at different durations, as indicated. As a control, the cells were also treated with 5 μg/ml MG132 (a proteasome inhibitor) for 2 hrs prior to adding cycloheximide. The cells were harvested and subjected to western blotting using the respective specific antibodies as indicated. Beta-actin (β-actin) was included as a loading control. CHX: cycloheximide; KDa: kilodalton. FIG. 2B. The curves showing the level of HPV16 E7 protein when co-overexpressed with USP7 or treated with HBX 19818 at different time points. The stability of HPV16 E7 was analyzed using the one-phase exponential decay function in GraphPad™ Prism 9. Error bars indicate standard error of the mean (SEM). FIG. 2C. […] Data are expressed as mean±SEM. ns: not significant, P>0.05; *: P<0.05.
We next wanted to assess whether HBX 19818 can reverse USP7-mediated deubiquitination of E7. […] The expression levels of Flag-USP7, endogenous ubiquitin, and E7 were detected using anti-Flag-, ubiquitin- and HPV16 E7-specific antibodies, respectively (FIG. 2A). […]
(In general: Immunoblotting shows a protein as a band on a membrane.)

For experiment [2], the system named is SCC25 (HPV-negative) cancer cells. Put plainly: Soft agar colony formation assay, SCC25. To be noted: SCC25, HBX 19818 versus DMSO, 14 days. As for the experimental part: FIGS. 4A-4D HBX 19818 inhibited transformation of CaSki cells, but not SCC25 cells. The representative images showing the whole-well view and morphology of colonies formed by (FIG. 4A) CaSki (HPV16-positive) and (FIG. 4C) SCC25 (HPV-negative) cancer cells. Cells were seeded into 0.35% agarose gel containing DMEM with 10% FBS, and grew for 14 days. The agarose gel was stained with crystal violet, and images were taken using a digital camera. The colony morphology was observed using an optical microscope at 100× magnification. The bar chart comparing the number of colonies of (FIG. 4B) CaSki or (FIG. 4D) SCC25 cells with DMSO or HBX 19818 at concentrations indicated (n=3). Data indicated are mean±standard error of the mean (SEM). *: P<0.05.
We performed a soft agar colony formation assay to assess the ability of CaSki and SCC25 to grow in an anchorage-independent manner, in the presence or absence of HBX 19818 treatment. CaSki and SCC25 cells were seeded into 0.7% soft agar containing 2×DMEM and 20% FBS. The cells were incubated at 37° C. for 14 days. After a 2-week incubation, the agarose gel was stained with crystal violet. Colonies formed were counted and measured. We observed that CaSki cells treated with DMSO formed a dramatically higher number of colonies (88.17±5.92) than those treated with 6 μM of HBX 19818 (62.67±2.03) (FIGS. 4A and 4B). […]

Turning to HBX 19818, the “Cell proliferation ability (relative OD 450 nm)” value in experiment [1] (SCC25, 3 μM) is given as 10.12±0.94 folds; in experiment [1] (SCC25, 6 μM), 7.29±1.24 folds. The Level of ubiquitin result in the experiment with ubiquitin in CaSki cells is listed as “increased level of ubiquitin”. Also, in experiment [2], the Number of colonies result is “no difference in the number of colonies”.
